Read-outs that look alike come from different tables or passages of the source. Marks after values point to notes of the source that are not given here.
Columns and labels:
[1] = test system: Hep G2 cells; assay: MTT cell viability assay, Hep G2 cells (serum-free DMEM); settings: Homo sapiens
From the text: (§1) Human hepatoma cell lines Hep G2 and Hep 3 were chosen as the in vitro models of hepatocytes and hepatoma, respectively.

[2] = as above; settings: human, Hep G2 cells, Cell viability
From the text: as §1

[3] = test system: Hep 3B cells; assay: MTT cell viability assay, Hep 3B cells (serum-free DMEM); settings: for viability at 1.25 µM / viability at 5 µM / viability at 10 µM / viability at 25 µM / IC50 / viability at 50 µM / viability at 0.1 µM / viability at 0.5 µM / viability at 1 µM / viability at 2 µM: Homo sapiens, Hep3B
From the text: as §1

[4] = test system: Hep 3B cells; settings: human, 48 h
From the text: as §1

[5] = test system: Hep 3B cells; assay: Cell cycle determination by flow cytometry, Hep 3B; type: cell-based, human; settings: cell line not given
[6] = in vitro; settings: human, Cell viability
From the text: as §1

[7] = HepG2, 48 h, read-out: IC50 (cell viability), 48 hr
[8] = HepG2, 72 h, read-out: IC50 (cell viability), 72 hr
[9] = no lovastatin 48 hr, then CAO 1.25 μM 48 hr
[10] = no lovastatin 48 hr, then CAO 5 μM 48 hr
[11] = 48 h, read-out: IC50 (cell viability), 48 hr
[12] = 72 h, read-out: IC50 (cell viability), 72 hr

CCCCCCCCOC(=O)/C=C/c1ccc(O)c(O)c1 [CAO, caffeic acid 1-octyl ester]
IC50 [1, 7]: 4 µM
IC50 [1, 8]: 2.7 µM
viability at 96 h, 1.25 μM ([2]; CAO 1.25 μM alone, 96 hr): 74 ± 2.9%
viability at 48 h, 1.25 μM ([2]; CAO 1.25 μM, 48 hr): 104 ± 4.6%
viability at 72 h, 1.25 μM ([2]; CAO 1.25 μM, 72 hr): 102.7 ± 0.4%
viability at 96 h, 5 μM ([2]; CAO 5 μM alone, 96 hr): 16.2 ± 1.2%
viability at 48 h, 5 μM ([2]; CAO 5 μM, 48 hr): 44.2 ± 6.6%
viability at 72 h, 5 μM ([2]; CAO 5 μM, 72 hr): 18.1 ± 2.1%
viability at 48 h, 10 μM ([2]; CAO 10 μM, 48 hr): 5.8 ± 3.9%
viability at 72 h, 10 μM ([2]; CAO 10 μM, 72 hr): 0%
viability at 48 h, 25 μM ([2]; CAO 25 μM, 48 hr): 0%
viability at 72 h, 25 μM ([2]; CAO 25 μM, 72 hr): 0%
viability at 48 h, 1.25 μM [2, 9]: 99 ± 4.1%
viability at 48 h, 5 μM [2, 10]: 42.8 ± 3%
Ratio, inhibition (%) Hep 3B/inhibition (%) Hep G2 ([3]; CAO 1.25 μM alone, 96 hr): 1.3*
Ratio, inhibition (%) Hep 3B/inhibition (%) Hep G2 ([3]; CAO 5 μM alone, 96 hr): 0.9
Ratio, inhibition (%) Hep 3B/inhibition (%) Hep G2 ([3]; CAO 5 μM, 48 hr): 0.9**
Ratio, inhibition (%) Hep 3B/inhibition (%) Hep G2 ([3]; CAO 5 μM, 72 hr): 1.0
Ratio, inhibition (%) Hep 3B/inhibition (%) Hep G2 ([3]; CAO 10 μM, 48 hr): 0.8
Ratio, inhibition (%) Hep 3B/inhibition (%) Hep G2 ([3]; CAO 10 μM, 72 hr): 1.0
Ratio, inhibition (%) Hep 3B/inhibition (%) Hep G2 ([3]; CAO 25 μM, 48 hr): 1.0*
Ratio, inhibition (%) Hep 3B/inhibition (%) Hep G2 ([3]; CAO 25 μM, 72 hr): 1.0
viability at 1.25 µM ([3]; 48 h, read-out: Cell viability, CAO 1.25 μM, 48 hr): 97.8 ± 4.1%
viability at 5 µM ([3]; 48 h, read-out: Cell viability, CAO 5 μM, 48 hr): 52 ± 1.8%
viability at 10 µM ([3]; 48 h, read-out: Cell viability, CAO 10 μM, 48 hr): 21.7 ± 3.9%
viability at 25 µM ([3]; 48 h, read-out: Cell viability, CAO 25 μM, 48 hr): 3.9 ± 1.3%
IC50 [3, 11]: 5.3 µM
viability at 1.25 µM ([3]; 72 h, read-out: Cell viability, CAO 1.25 μM, 72 hr): 89.8 ± 0.6%
viability at 5 µM ([3]; 72 h, read-out: Cell viability, CAO 5 μM, 72 hr): 16.3 ± 2.6%
viability at 10 µM ([3]; 72 h, read-out: Cell viability, CAO 10 μM, 72 hr): 2.4 ± 1.6%
viability at 25 µM ([3]; 72 h, read-out: Cell viability, CAO 25 μM, 72 hr): 0%
IC50 [3, 12]: 2.9 µM
viability at 1.25 µM ([3]; 96 h, read-out: Cell viability, CAO 1.25 μM alone, 96 hr): 66.9 ± 2.9%
viability at 5 µM ([3]; 96 h, read-out: Cell viability, CAO 5 μM alone, 96 hr): 20.1 ± 5.7%
Cell viability [3, 9]: 83.0 ± 4.4^b % of control
Ratio, inhibition (%) Hep 3B/inhibition (%) Hep G2 [3, 9]: 17.0***
Cell viability [3, 10]: 53.2 ± 4.5^d % of control
Ratio, inhibition (%) Hep 3B/inhibition (%) Hep G2 [3, 10]: 0.8*

O=C(/C=C/c1ccc(O)c(O)c1)OCCc1ccccc1 [CAPE, caffeic acid phenethyl ester]
Cell viability ([4]; 5 μM): 88.8 ± 1.6^b % of control
Cell viability ([4]; 10 μM): 77.4 ± 1.8^c % of control
IC50 [1, 7]: 9.5 µM
IC50 [1, 8]: 4.5 µM
Ratio, inhibition (%) Hep 3B/inhibition (%) Hep G2 ([3]; CAPE 5 μM alone, 72 hr, Table 23): 0.4**
Ratio, inhibition (%) Hep 3B/inhibition (%) Hep G2 ([3]; CAPE 5 μM, 48 hr): 0.4***
Ratio, inhibition (%) Hep 3B/inhibition (%) Hep G2 ([3]; CAPE 5 μM, 72 hr): 0.5***
Ratio, inhibition (%) Hep 3B/inhibition (%) Hep G2 ([3]; CAPE 10 μM alone, 72 hr, Table 23): 0.6***
Ratio, inhibition (%) Hep 3B/inhibition (%) Hep G2 ([3]; CAPE 10 μM, 48 hr): 0.5***
Ratio, inhibition (%) Hep 3B/inhibition (%) Hep G2 ([3]; CAPE 10 μM, 72 hr): 0.7**
Ratio, inhibition (%) Hep 3B/inhibition (%) Hep G2 ([3]; CAPE 25 μM alone, 72 hr, Table 23): 0.9
Ratio, inhibition (%) Hep 3B/inhibition (%) Hep G2 ([3]; CAPE 25 μM, 48 hr): 1.1
Ratio, inhibition (%) Hep 3B/inhibition (%) Hep G2 ([3]; CAPE 25 μM, 72 hr): 1.0
Ratio, inhibition (%) Hep 3B/inhibition (%) Hep G2 ([3]; CAPE 50 μM, 48 hr): 0.9**
Ratio, inhibition (%) Hep 3B/inhibition (%) Hep G2 ([3]; CAPE 50 μM, 72 hr): 1.0
viability at 5 µM ([3]; 48 h, read-out: Cell viability, CAPE 5 μM, 48 hr): 87.1 ± 1.8%
viability at 10 µM ([3]; 48 h, read-out: Cell viability, CAPE 10 μM, 48 hr): 73.2 ± 1.2%
viability at 25 µM ([3]; 48 h, read-out: Cell viability, CAPE 25 μM, 48 hr): 38.2 ± 4.7%
viability at 50 µM ([3]; 48 h, read-out: Cell viability, CAPE 50 μM, 48 hr): 20.5 ± 4.6%
IC50 [3, 11]: 19.9 µM
viability at 5 µM ([3]; 72 h, read-out: Cell viability, CAPE 5 μM alone, 72 hr, Table 23): 74.2 ± 6.8%
viability at 5 µM ([3]; 72 h, read-out: Cell viability, CAPE 5 μM, 72 hr): 70.8 ± 2.6%
viability at 10 µM ([3]; 72 h, read-out: Cell viability, CAPE 10 μM alone, 72 hr, Table 23): 53.5 ± 5%
viability at 10 µM ([3]; 72 h, read-out: Cell viability, CAPE 10 μM, 72 hr): 47.6 ± 1.9%
viability at 25 µM ([3]; 72 h, read-out: Cell viability, CAPE 25 μM alone, 72 hr, Table 23): 22.3 ± 5.7%
viability at 25 µM ([3]; 72 h, read-out: Cell viability, CAPE 25 μM, 72 hr): 12.5 ± 4.8%
viability at 50 µM ([3]; 72 h, read-out: Cell viability, CAPE 50 μM, 72 hr): 0%
IC50 [3, 12]: 9.5 µM
Ratio, inhibition (%) Hep 3B/inhibition (%) Hep G2 ([3]; no lovastatin 48 hr, then CAPE 5 μM 48 hr): 0.4***
Ratio, inhibition (%) Hep 3B/inhibition (%) Hep G2 ([3]; no lovastatin 48 hr, then CAPE 10 μM 48 hr): 0.4***
cell cycle arrest stage [5]: G1 arrest
viability at 48 h, 5 μM [6]: 70.2 ± 1.7%
viability at 48 h, 10 μM [6]: 47.7 ± 5.6%
viability at 48 hr, 5 μM [6]: 71.1 ± 1.8%
viability at 48 hr, 10 μM [6]: 47.4 ± 3%
viability at 48 hr, 25 μM [6]: 42.6 ± 1.3%
viability at 48 hr, 50 μM [6]: 7.5 ± 0.6%
viability at 72 h, 5 μM [6]: 36.8 ± 6.7%
viability at 72 h, 10 μM [6]: 20 ± 4%
viability at 72 h, 25 μM [6]: 13.2 ± 1.1%
viability at 72 hr, 5 μM [6]: 42.3 ± 2.5%
viability at 72 hr, 10 μM [6]: 21.2 ± 5%
viability at 72 hr, 25 μM [6]: 12.5 ± 3%
viability at 72 hr, 50 μM [6]: 1.9 ± 1.8%

COc1cccc2c1C(=O)c1c(O)c3c(c(O)c1C2=O)C[C@@](O)(C(=O)CO)C[C@@H]3O[C@H]1C[C@H](N)[C@H](O)[C@H](C)O1 [DOX, doxorubicin]
IC50 [1, 7]: 0.4 µM
IC50 [1, 8]: 0.5 µM
viability at 48 hr, 0.1 μM ([2]; DOX 0.1 μM, 48 hr): 100 ± 5.3%
viability at 72 hr, 0.1 μM ([2]; DOX 0.1 μM, 72 hr): 99.9 ± 7.5%
viability at 48 hr, 0.5 μM ([2]; DOX 0.5 μM, 48 hr): 42.8 ± 3.7%
viability at 72 hr, 0.5 μM ([2]; DOX 0.5 μM, 72 hr): 46.7 ± 4%
viability at 48 hr, 1 μM ([2]; DOX 1 μM, 48 hr): 29.1 ± 1.7%
viability at 72 hr, 1 μM ([2]; DOX 1 μM, 72 hr): 20 ± 1.1%
viability at 48 hr, 2 μM ([2]; DOX 2 μM, 48 hr): 16.7 ± 2.4%
viability at 72 hr, 2 μM ([2]; DOX 2 μM, 72 hr): 1.9 ± 0.8%
Ratio, inhibition (%) Hep 3B/inhibition (%) Hep G2 ([3]; DOX 0.5 μM, 48 hr): 0.6***
Ratio, inhibition (%) Hep 3B/inhibition (%) Hep G2 ([3]; DOX 0.5 μM, 72 hr): 0.7*
Ratio, inhibition (%) Hep 3B/inhibition (%) Hep G2 ([3]; DOX 1 μM, 48 hr): 0.6***
Ratio, inhibition (%) Hep 3B/inhibition (%) Hep G2 ([3]; DOX 1 μM, 72 hr): 0.6**
Ratio, inhibition (%) Hep 3B/inhibition (%) Hep G2 ([3]; DOX 2 μM, 48 hr): 0.7***
Ratio, inhibition (%) Hep 3B/inhibition (%) Hep G2 ([3]; DOX 2 μM, 72 hr): 0.9**
viability at 0.1 µM ([3]; 48 h, read-out: Cell viability, DOX 0.1 μM, 48 hr): 99.9 ± 7.8%
viability at 0.5 µM ([3]; 48 h, read-out: Cell viability, DOX 0.5 μM, 48 hr): 66.7 ± 1.6%
viability at 1 µM ([3]; 48 h, read-out: Cell viability, DOX 1 μM, 48 hr): 59.3 ± 4.1%
viability at 2 µM ([3]; 48 h, read-out: Cell viability, DOX 2 μM, 48 hr): 40.1 ± 3%
IC50 [3, 11]: 1.5 µM
viability at 0.1 µM ([3]; 72 h, read-out: Cell viability, DOX 0.1 μM, 72 hr): 100 ± 5.8%
viability at 0.5 µM ([3]; 72 h, read-out: Cell viability, DOX 0.5 μM, 72 hr): 62.1 ± 6.9%
viability at 1 µM ([3]; 72 h, read-out: Cell viability, DOX 1 μM, 72 hr): 48.9 ± 8.4%
viability at 2 µM ([3]; 72 h, read-out: Cell viability, DOX 2 μM, 72 hr): 9.9 ± 2.7%
IC50 [3, 12]: 1 µM

From US20020173538A1, “Method for sensitizing cancer cells to cancer therapies with a mevalonate-reducing compound” (priority 2000, published 2002)
